Assay in all cases: isothermal titration calorimetry
Common to all, as to assay type: binding
A general note: Isothermal titration calorimetry measures the heat released or taken up as one component is titrated into another.

In assay [1] the target is T1, Bdf3 bromodomain (Bdf3^32-150) (Trypanosoma brucei, UniProt Q383S2).
T1 construct: gene Tb11.01.1830; bromodomain, residues 32-150, amplified from genomic DNA, pET28a with N-terminal PreScission-cleavable His6 tag, E. coli; strain-construction section prints a conflicting locus Tb427.01.1830
T1 sequence (Q383S2 32-150): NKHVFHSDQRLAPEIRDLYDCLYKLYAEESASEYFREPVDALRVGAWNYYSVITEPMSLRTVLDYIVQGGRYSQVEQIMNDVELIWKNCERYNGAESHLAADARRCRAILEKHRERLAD
The source says:
isothermal titration calorimetry on Bdf3 bromodomain (Bdf3^32-150) | confirmed direct and specific binding of I-BET151 to their AcK recognition sites

In assay [2] the target is T2, Bdf2 bromodomain (Bdf2^9-123) (Trypanosoma brucei, UniProt Q38AM1).
T2 construct: gene Tb10.6k15.3240; bromodomain, residues 9-123, amplified from genomic DNA, pET28a with N-terminal PreScission-cleavable His6 tag, E. coli; crystal model residues 9-114
T2 sequence (Q38AM1 9-123): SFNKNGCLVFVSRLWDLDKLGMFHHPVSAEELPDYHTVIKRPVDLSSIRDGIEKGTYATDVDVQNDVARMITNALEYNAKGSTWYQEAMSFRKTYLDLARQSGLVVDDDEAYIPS
An excerpt: isothermal titration calorimetry on Bdf2 bromodomain (Bdf2^9-123) | confirmed direct and specific binding of I-BET151 to their AcK recognition sites

For assay [3], the target named is T2, Bdf2 bromodomain (Bdf2^9-123). The settings on record: 15°C, pH 7.5, 20 mM Hepes, 150 mM NaCl, 0.5 mM TCEP, 1% DMSO.
Assay [4] addresses T1, Bdf3 bromodomain (Bdf3^32-150). The conditions noted are these: 15°C, pH 7.5, 20 mM Hepes, 150 mM NaCl, 0.5 mM TCEP, 1% DMSO.

For `COc1cc2c(cc1-c1c(C)noc1C)ncc1[nH]c(=O)n([C@H](C)c3ccccn3)c12` [I-BET151], the Kd – broadly, the equilibrium constant for the complex coming apart – in assay [1] was 175 ± 10 µM; in assay [2], 225 ± 5 µM.

For the molecule `Cc1sc2c(c1C)C(c1ccc(Cl)cc1)=N[C@@H](CC(=O)OC(C)(C)C)c1nnc(C)n1-2` [JQ1], the no binding detected result in assay [3] is listed as “we could not detect binding of another well characterized bromodomain inhibitor, JQ1”; in assay [4], “we could not detect binding of another well characterized bromodomain inhibitor, JQ1”.
